# Measurements taken from patent US11285139B2, “Treatment of CNS conditions” (Takeda Pharmaceutical Company Limited, priority 2017, dated 2022).
# Tests used:
# Assay type in all cases: in vivo
# [1] = single-rising dose (SRD) first-in-human study, safety evaluation
# Description: (§1) Four clinical studies including a single-rising dose (SRD) first-in-human study, a single-dose positron emission tomography (PET) target occupancy study, a multiple-rising dose (MRD) study, and a single-dose relative bioavailability (BA) and food-effect study were conducted.
# [2] = target: T1, CH24H (Homo sapiens, UniProt Q9Y6A2); experiment: single-dose positron emission tomography (PET) target occupancy study
# T1 construct: single-dose positron emission tomography (PET) target occupancy study; from tissue; host or cells: brain of study participants, in vivo (brain is inferred from the statement that CH24H is expressed in neurons)
# T1 sequence (Q9Y6A2 whole entry): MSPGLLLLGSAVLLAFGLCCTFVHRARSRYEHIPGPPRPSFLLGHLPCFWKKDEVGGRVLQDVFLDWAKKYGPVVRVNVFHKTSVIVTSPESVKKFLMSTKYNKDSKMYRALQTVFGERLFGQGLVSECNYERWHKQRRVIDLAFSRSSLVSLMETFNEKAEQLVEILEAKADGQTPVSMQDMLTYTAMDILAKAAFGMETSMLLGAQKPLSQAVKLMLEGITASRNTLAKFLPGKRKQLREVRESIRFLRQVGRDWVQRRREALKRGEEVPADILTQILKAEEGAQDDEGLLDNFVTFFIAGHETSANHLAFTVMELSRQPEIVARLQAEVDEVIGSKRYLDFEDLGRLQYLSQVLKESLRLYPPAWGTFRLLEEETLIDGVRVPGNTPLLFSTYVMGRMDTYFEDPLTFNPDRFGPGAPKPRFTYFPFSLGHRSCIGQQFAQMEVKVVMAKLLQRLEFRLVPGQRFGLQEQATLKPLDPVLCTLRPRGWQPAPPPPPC
# Description: as §1
# The pharmacokinetics (PK) and pharmacodynamics (PD) of (4-benzyl-4-hydroxypiperidin-1-yl) (2,4′-bipyridin-3-yl)methanone were characterized in these studies.
# [3] = test system: Scn1a+/−mice; experiment: spontaneous seizures in Scn1a+/− mouse model of Dravet syndrome; conditions: chow containing 0.02% (w/w) for 2 weeks, started at 17-18 days after birth; control group 23.9%
# Description: The following Example provides data from a heterozygous deletion of a Scn1a mouse model (Scn1a+/−mice) of Dravet syndrome, a developmental epileptic encephalopathy subtype. Myoclonic and generalized tonic-clonic seizures are observed, which correlate to symptoms in humans. Therefore, (4-benzyl-4-hydroxypiperidin-1-yl) (2,4′-bipyridin-3-yl)methanone was tested in Scn1a+/−mice for its potential effects on seizure. At 17-18 days after birth, mice were weaned and started on treatment either with control chow or chow containing (4-benzyl-4-hydroxypiperidin-1-yl) (2,4′-bipyridin-3-yl)methanone 0.02% (w/w) for 2 weeks. Spontaneous seizures were continuously monitored. The seizure free rate during the study period for the control group was 23.9%.
structure (smiles),measurement,setting,value
"O=C(c1cccnc1-c1ccncc1)N1CCC(O)(Cc2ccccc2)CC1 [(4-benzyl-4-hydroxypiperidin-1-yl) (2,4′-bipyridin-3-yl)methanone]",serious pretreatment events or post treatment adverse events,"[1]; all cohorts, 15-1350 mg single oral dose",No serious pretreatment events or post treatment adverse events were reported
same,safety and tolerability,"[1]; doses up to 1350 mg single dose, healthy male and female subjects",generally safe and well tolerated
same,plasma 24HC concentrations,[2],dose-dependent decreases
same,PET occupancy measurements,[2]; correlated with circulating levels of 24HC,dose- and time-dependent
same,seizure free rate during the study period,[3],91.7%
